Several values for one entry are separate records, joined by “and”; a condition that tells them apart may be missing. Equal entries are not always repeated. Toxic doses and inconclusive results are not listed.
Test system: BDF1 mice, B16 melanoma ip, median survival T/C
Assay: NCI In Vivo Anticancer Drug Screen. Data for tumor model B16 Melanoma (intraperitoneal) in B6D2F1 (BDF1) mice
Conditions: endpoint: median survival time, higher = longer survival
Description: The antitumor activity of compounds was measured in mice bearing transplantable tumors. Survival or tumor size were measured and the results are expressed as the measurement made in the treated group (T) divided by the measurement made in the vehicle treated control group (C). The tumor model used in this assay is B16 Melanoma (intraperitoneal) in B6D2F1 (BDF1) mice

[1] = dose: 12.5 mg/kg/injection, schedule: Q01DX009 (ip), vehicle: saline with Tween-80
[2] = dose: 25.0 mg/kg/injection, schedule: Q01DX009 (ip), vehicle: saline with Tween-80
[3] = dose: 25.0 mg/kg/injection, schedule: Q01DX009 (ip), vehicle: saline
[4] = dose: 50.0 mg/kg/injection, schedule: Q01DX009 (ip), vehicle: saline
[5] = dose: 12.5 mg/kg/injection, schedule: Q01DX005 (ip), vehicle: other
[6] = dose: 25.0 mg/kg/injection, schedule: Q01DX005 (ip), vehicle: other
[7] = dose: 50.0 mg/kg/injection, schedule: Q01DX005 (ip), vehicle: other
[8] = dose: 100.0 mg/kg/injection, schedule: Q01DX005 (ip), vehicle: other
[9] = dose: 200.0 mg/kg/injection, schedule: Q01DX005 (ip), vehicle: other

Cc1nc2[nH]c(=O)[nH]c(=O)c2[nH]1
T/C [1]: 111 % of control | T/C (dose: 12.5 mg/kg/injection, schedule: Q04DX003 (ip), vehicle: saline with Tween-80): 105 % of control | T/C [2]: 100 % of control | T/C (dose: 25.0 mg/kg/injection, schedule: Q04DX003 (ip), vehicle: saline with Tween-80): 108 % of control | T/C (dose: 50.0 mg/kg/injection, schedule: Q01DX009 (ip), vehicle: saline with Tween-80): 102 % of control | T/C (dose: 50.0 mg/kg/injection, schedule: Q04DX003 (ip), vehicle: saline with Tween-80): 105 % of control

O=NN(CCCl)C(=O)NC1CCCCC1
T/C (dose: 4.0 mg/kg/injection, schedule: Q01DX001 (ip), vehicle: Klucel (hydroxypropylcellulose) (HPC)): 102 % of control and 121 % of control | T/C (dose: 4.0 mg/kg/injection, schedule: Q01DX001 (ip), vehicle: saline): 107 % of control | T/C (dose: 7.5 mg/kg/injection, schedule: Q01DX001 (ip), vehicle: other): 107 % of control | T/C (dose: 8.0 mg/kg/injection, schedule: Q01DX001 (ip), vehicle: Klucel (hydroxypropylcellulose) (HPC)): 102 % of control | T/C (dose: 12.5 mg/kg/injection, schedule: Q01DX010 (ip), vehicle: saline): 115 % of control | T/C (dose: 25.0 mg/kg/injection, schedule: Q01DX010 (ip), vehicle: saline): 110 % of control | T/C (dose: 30.0 mg/kg/injection, schedule: Q01DX001 (ip), vehicle: other): 198 % of control | T/C (dose: 32.0 mg/kg/injection, schedule: Q01DX001 (ip), vehicle: Klucel (hydroxypropylcellulose) (HPC)): 182 % of control and 312 % of control | T/C (dose: 50.0 mg/kg/injection, schedule: Q01DX010 (ip), vehicle: saline): 113 % of control | T/C (dose: 100.0 mg/kg/injection, schedule: Q01DX010 (ip), vehicle: saline): 102 % of control

Oc1ccc(Nc2ccnc3cc(Cl)ccc23)cc1CN(CCCl)CCCl
T/C (dose: 0.31 mg/kg/injection, schedule: Q01DX009 (ip), vehicle: saline): 97 % of control | T/C (dose: 0.63 mg/kg/injection, schedule: Q01DX009 (ip), vehicle: saline): 105 % of control | T/C (dose: 1.25 mg/kg/injection, schedule: Q01DX009 (ip), vehicle: saline): 107 % of control and 113 % of control | T/C (dose: 2.5 mg/kg/injection, schedule: Q01DX009 (ip), vehicle: saline): 115 % of control

O=C(O)c1ccc(Nc2c3ccccc3nc3ccccc23)cc1
T/C (dose: 8.0 mg/kg/injection, schedule: Q01DX009 (ip), vehicle: other): 103 % of control | T/C (dose: 12.0 mg/kg/injection, schedule: Q01DX009 (ip), vehicle: other): 117 % of control | T/C (dose: 13.0 mg/kg/injection, schedule: Q01DX009 (ip), vehicle: saline with Tween-80): 119 % of control | T/C (dose: 28.0 mg/kg/injection, schedule: Q01DX009 (ip), vehicle: other): 117 % of control | T/C (dose: 42.0 mg/kg/injection, schedule: Q01DX009 (ip), vehicle: other): 160 % of control | T/C (dose: 44.0 mg/kg/injection, schedule: Q01DX009 (ip), vehicle: Klucel (hydroxypropylcellulose) (HPC)): 169 % of control | T/C (dose: 44.0 mg/kg/injection, schedule: Q01DX009 (ip), vehicle: saline with Tween-80): 156 % of control

COc1cc(Cl)ccc1C
T/C (dose: 37.5 mg/kg/injection, schedule: Q01DX001 (ip), vehicle: Klucel (hydroxypropylcellulose) (HPC)): 103 % of control | T/C (dose: 75.0 mg/kg/injection, schedule: Q01DX001 (ip), vehicle: Klucel (hydroxypropylcellulose) (HPC)): 182 % of control | T/C (dose: 150.0 mg/kg/injection, schedule: Q01DX001 (ip), vehicle: Klucel (hydroxypropylcellulose) (HPC)): 116 % of control | T/C (dose: 300.0 mg/kg/injection, schedule: Q01DX001 (ip), vehicle: Klucel (hydroxypropylcellulose) (HPC)): 100 % of control

C=C(C)[C@H]1Cc2c(ccc3c2O[C@@H]2COc4cc(OC)c(OC)cc4[C@@H]2C3=O)O1
T/C (dose: 4.0 mg/kg/injection, schedule: Q01DX009 (ip), vehicle: saline with Tween-80): 92 % of control and 99 % of control | T/C (dose: 8.0 mg/kg/injection, schedule: Q01DX009 (ip), vehicle: saline with Tween-80): 105 % of control | T/C (dose: 16.0 mg/kg/injection, schedule: Q01DX009 (ip), vehicle: saline with Tween-80): 98 % of control

CC(C)NNC(=O)C(C)O (stereo unspecified)
T/C [3]: 118 % of control | T/C [4]: 102 % of control | T/C (dose: 200.0 mg/kg/injection, schedule: Q01DX009 (ip), vehicle: saline): 102 % of control

NC(=O)c1ccccc1OCc1ccccc1
T/C (dose: 75.0 mg/kg/injection, schedule: Q01DX009 (ip), vehicle: Klucel (hydroxypropylcellulose) (HPC)): 100 % of control | T/C (dose: 150.0 mg/kg/injection, schedule: Q01DX009 (ip), vehicle: Klucel (hydroxypropylcellulose) (HPC)): 101 % of control | T/C (dose: 300.0 mg/kg/injection, schedule: Q01DX009 (ip), vehicle: Klucel (hydroxypropylcellulose) (HPC)): 101 % of control

COC1/C=C\C=C(/C)C(=O)Nc2cc3nc4cccc(Br)c4oc-3c(c2=O)CC(C)CC(OC)C(O)C(C)/C=C(\C)C1OC(N)=O (stereo unspecified)
T/C [5]: 103 % of control | T/C [6]: 98 % of control | T/C [7]: 108 % of control | T/C [8]: 107 % of control | T/C [9]: 94 % of control

CCCCNCC1COc2cccc(OCC)c2O1 (stereo unspecified)
T/C (dose: 3.12 mg/kg/injection, schedule: Q01DX009 (ip), vehicle: saline): 120 % of control | T/C (dose: 6.25 mg/kg/injection, schedule: Q01DX009 (ip), vehicle: saline): 95 % of control | T/C (dose: 12.5 mg/kg/injection, schedule: Q01DX009 (ip), vehicle: saline): 97 % of control | T/C [3]: 105 % of control | T/C [4]: 100 % of control

Cc1n[nH]c2ccc([N+](=O)[O-])cc2c1=O
T/C (dose: 6.25 mg/kg/injection, schedule: Q01DX009 (ip), vehicle: saline with Tween-80): 97 % of control | T/C [1]: 90 % of control | T/C [2]: 95 % of control

CCOC(=O)CCC(NC(=O)c1ccc(NCc2ccc3nc(N)nc(N)c3c2C)cc1)C(=O)OCC (stereo unspecified)
T/C (dose: 0.01 mg/kg/injection, schedule: Q01DX009 (ip), vehicle: saline + alcohol): 108 % of control | T/C (dose: 0.02 mg/kg/injection, schedule: Q01DX009 (ip), vehicle: saline + alcohol): 102 % of control | T/C (dose: 0.03 mg/kg/injection, schedule: Q01DX009 (ip), vehicle: saline + alcohol): 105 % of control | T/C (dose: 0.06 mg/kg/injection, schedule: Q01DX009 (ip), vehicle: saline + alcohol): 93 % of control | T/C (dose: 0.11 mg/kg/injection, schedule: Q01DX009 (ip), vehicle: saline + alcohol): 91 % of control

O=C(O)c1cccc2[nH]c(=O)oc(=O)c12
T/C (dose: 100.0 mg/kg/injection, schedule: Q01DX009 (ip), vehicle: saline with Tween-80): 89 % of control | T/C (dose: 200.0 mg/kg/injection, schedule: Q01DX009 (ip), vehicle: saline with Tween-80): 91 % of control

COc1c2ccoc2nc2c(OC)c3c(cc12)OCO3
T/C (dose: 6.25 mg/kg/injection, schedule: Q01DX009 (ip), vehicle: Klucel (hydroxypropylcellulose) (HPC)): 89 % of control | T/C (dose: 12.5 mg/kg/injection, schedule: Q01DX009 (ip), vehicle: Klucel (hydroxypropylcellulose) (HPC)): 100 % of control | T/C (dose: 25.0 mg/kg/injection, schedule: Q01DX009 (ip), vehicle: Klucel (hydroxypropylcellulose) (HPC)): 95 % of control | T/C (dose: 50.0 mg/kg/injection, schedule: Q01DX009 (ip), vehicle: Klucel (hydroxypropylcellulose) (HPC)): 92 % of control

COC1=C2CC(C)CC(OC)C(O)C(C)/C=C(\C)C(OC(N)=O)C(OC)/C=C\C=C(/C)C(=O)NC(=C(/C=N/N(C)C)C1=O)C2=O (stereo unspecified)
T/C [5]: 101 % of control | T/C [6]: 101 % of control | T/C [7]: 101 % of control | T/C [8]: 97 % of control | T/C [9]: 96 % of control

C1CC[N-]CC1.C1CC[N-]CC1.O=C(O)C(=O)O.[Pt+2]
T/C (dose: 6.25 mg/kg/injection, schedule: Q04DX003 (ip), vehicle: Klucel (hydroxypropylcellulose) (HPC)): 100 % of control | T/C (dose: 12.5 mg/kg/injection, schedule: Q04DX003 (ip), vehicle: Klucel (hydroxypropylcellulose) (HPC)): 120 % of control | T/C (dose: 25.0 mg/kg/injection, schedule: Q04DX003 (ip), vehicle: Klucel (hydroxypropylcellulose) (HPC)): 119 % of control | T/C (dose: 50.0 mg/kg/injection, schedule: Q04DX003 (ip), vehicle: Klucel (hydroxypropylcellulose) (HPC)): 115 % of control | T/C (dose: 100.0 mg/kg/injection, schedule: Q04DX003 (ip), vehicle: Klucel (hydroxypropylcellulose) (HPC)): 113 % of control

O=C1CN(CCN2CC(=O)NC(=O)C2)CC(=O)N1
T/C (dose: 15.0 mg/kg/injection, schedule: Q01DX009 (oral), vehicle: saline): 115 % of control | T/C (dose: 30.0 mg/kg/injection, schedule: Q01DX009 (oral), vehicle: saline): 122 % of control
